Measured values taken from US20060167229A1, “Biologically active peptide conjugates” (priority 2002, published 2006).
Marks after values point to notes of the source that are not given here. Ends that are not written are not given here.

Assays:
[1] = test system: Sheep red blood cells (SRBC); assay: Humoral immunity (SRBC hemolysis index) of mice bearing transplanted B16 melanoma; type: in vivo, C57BL/6 mice; design: key: index = (OD540 sample ÷ reference OD540) × 500; details: saline 19.0 ± 9.1
Description: (§1) Intraperitoneal injection, once per day. […] Treatment of all groups with testing substance lasted for 30 days or until the animal died unless otherwise specified.
Stock B16 mouse melanoma cells were incubated in DMEM/F12 medium supplemented with 10% fetal bovine serum, 37° C./5% CO2 for 72 hrs, then washed 3-4 times with Hank's solution. The cell concentration was adjusted to 1×10^5 per ml with Hank's solution and 0.1 ml of the cell suspension was injected via the tail vein into the testing mice to generate the B16 melanoma bearing animal model. Treatment with test substance started as described in section Method 1.
Sheep red blood cells (SRBC) were prepared by collecting blood from the cervical vein and put into a sterile flask with glass beads. The flask was shaken for 3 minutes and the blood then mixed with Alsever solution (glucose 2.05 g, NaCl 0.4 g, […] 0.8 g, adjust to 100 ml with distilled water) and stored at 4° C. Immediately before use, samples were centrifuged at 130 g, 5 minutes to collect the SRBC. The cells were washed two times by re-suspension and centrifugation in normal saline. Then the cell pellet was collected by centrifugation at 180 g for 10 minutes and re-suspended in saline to make the final working SRBC suspension, 2% (v/v).
Complement was prepared by adding 10 volumes of fresh Cavy serum into one volume centrifuge packed SRBC, and then gently shaken for 30 minutes at 4° C. The SRBC was removed by centrifugation at 200 g for 10 minutes. 10 volumes of normal saline were added to obtain the working complement solution.
On the testing animals, on the 27th date of test substance treatment, 0.2 ml of the working SRBC cell suspension was injected into each animal to raise antibody. On the day after the last test substance administration, blood was collected from the eye canthus and left at room temperature for one hour for serum exudation. After centrifugation at 200 g for 10 minutes, the collected serum was diluted by 500 times with normal saline.
To 1 ml diluted mouse serum of each mouse, 0.5 ml SRBC suspension was added. Ice cold. Then 1 ml working complement solution was added and incubated at 37° C. water bath for 10 minutes. Reactions were terminated by ice cold. Samples were then centrifuged at 200 g for 10 minutes to obtain the supernatant.
To 1 ml of this supernatant, 3 ml Drabkin solution was added and left at room temperature for 10 minutes. OD540 nm was obtained.
Reference OD540 nm was obtained by mixing 0.25 ml SRBC suspension with Drabkin solution to 4 ml and placed at room temperature for 10 minutes before OD540 nm was taken. Hemolysis index=(OD540 nm of test sample÷reference OD540 nm)×500 6.2 After the Humoral Immunity Study, the Mice were Killed by Cervical Vertebra Dislocation. Postmortem Examination of the Animals was Performed. The Pathological Changes were Recorded, and the Numbers of Melanoma Lung Metastasis Foci Were Counted. Results

[2] = test system: ascitic fluid type liver cancer H22; assay: Survival of mice with transplanted ascitic fluid type liver cancer H22; type: in vivo, BALB/c mice; details: for Survival days: saline 26.2 ± 6.8
Description: as §1
Stock H22 cells were incubated in DMEM/F12 medium supplemented with 10% fetal bovine serum, 37° C./5% CO2 for 72 hrs, then washed 3-4 times with Hank's solution at room temperature. Adjust cell concentration to 1-2×10^9 per litre with Hank's solution. 0.2 ml of the cell suspension was implanted to the abdominal cavity of several BALB/c mice for 6-8 days. The mice were killed by cervical vertebra dislocation. Ascitic fluid of the mice was collected aseptically and the cell concentration adjusted to 1×10^6 per ml with Hank's solution. 0.2 ml of the cell suspension was implanted into the abdominal cavity of healthy mice to generate the H22 carrying mouse model for ascitic fluid type liver cancer. Administration of test substance started as described in section Method 1. Survival data of the mice was recorded. If the animal survived longer than the experiment, the survival days was recorded as the duration of the experiment. Mean survival day was obtained by the Kaplan-meier method in the Survival option of the SPSS software. The survival index was calculated according to the following formula: Survival index=(mean survival days in treatment group−mean survival days of control group)÷mean survival days of control group×100% 4. The Effect of Peptides on the Cellular Immunity of BALB/c Mice with Transplanted Ascitic Fluid Type Liver Cancer H22 4.1 Preparation of Spleen Cell Suspension^[1,4]

L1210 leukemia = assay: Survival of mice with transplanted L1210 leukemia; type: in vivo, DBA/2 mice; details: for Survival days: saline 16.6 ± 5.6
Description: as §1
Stock L1210 cells were incubated in DMEM/F12 medium supplemented with 10% fetal bovine serum, 37° C./5% CO2 for 72 hrs, then washed 3-4 times with Hank's solution, and adjusted to […]. 0.1 ml of the cell suspension was implanted into the abdominal cavity of several healthy DBA mice for 6-8 days. The mice were then killed by cervical vertebra dislocation and their ascitic fluid collected aseptically. The cell concentration of the collected ascitic fluid was adjusted to 1×10^5 per ml with Hank's solution. 0.1 ml of the cell suspension was implanted into each of the testing animal and the survival data of the animals recorded. Treatment started in the testing animals as described in section Method 1. Mean survival day was obtained by the Kaplan-meier method in the Survival option of the SPSS software. If the animal survived longer than the experiment, the survival days was entered as the duration of the experiment. The survival index was calculated according to the following formula: Survival index=(mean survival days of treatment group−mean survival days of control group)÷mean survival days of control group 6. The Effect of Peptides on the Humoral Immunity of C57BL/6 Mice Bearing Transplanted B16 Melanoma and that on the Metastatic Potential of the Inoculated Melanoma Cells

[3] = dose 0.5 μg/kg i.p. once per day
[4] = dose 50 μg/kg i.p. once per day
[5] = controls: rhIL-2, rmIFN-γ 3 × 10^5 IU/kg, cyclophosphamide 20 mg/kg

FNFVPP [CMS003]
Hemolysis index ([1]; dose 0.5 μg/kg): 61.6 ± 26.9*^$ | Hemolysis index ([1]; dose 5 μg/kg): 37.2 ± 15.9*^$ | Hemolysis index ([1]; dose 50 μg/kg): 38.7 ± 13.5*^$ | Hemolysis index ([1]; dose 500 μg/kg): 35.9 ± 13.0*^$

IGMESAGIHETTY [CMS016]
Hemolysis index ([1]; dose 500 μg/kg): 43.3 ± 29.9

KAVGHLDDLPGAL [CMS008]
Survival index (%) ([2]; dose 5 μg/kg i.p. once per day): 67.8% | Survival days ([2]; dose 5 μg/kg i.p. once per day): 50.7 ± 20.9*^& days | Hemolysis index ([1]; dose 0.5 μg/kg): 42.7 ± 18.4*^$ | Hemolysis index ([1]; dose 5 μg/kg): 38.9 ± 12.0*^$ | Hemolysis index ([1]; dose 50 μg/kg): 37.1 ± 16.7*^$ | Hemolysis index ([1]; dose 500 μg/kg): 50.1 ± 17.8*^$

PTTKTYFPHF [CMS001]
Hemolysis index ([1]; dose 0.5 μg/kg): 51.0 ± 16.2*^$ | Hemolysis index ([1]; dose 5 μg/kg): 41.3 ± 17.7*^$ | Hemolysis index ([1]; dose 50 μg/kg): 45.0 ± 31.9*^$ | Hemolysis index ([1]; dose 500 μg/kg): 36.0 ± 10.2*^$

Phe Gln Gln Gln (FQQQ; printed: Phe Gln Gln Gln) [CMS032]
Survival index (%) [2, 3]: 63.3% | Survival days [2, 3]: 42.8 ± 12.2*^^&$ days

Phe Val Asn Asp (FVND; listed as Sus scrofa) [CMS035]
Survival index (%) (L1210 leukemia; [3]): 76.1% | Survival days (L1210 leukemia; [3]): 29.3 ± 15.4 days | Hemolysis index ([1]; dose 5 μg/kg): 38.9 ± 21.2*^$ | Hemolysis index ([1]; dose 50 μg/kg): 44.7 ± 22.7*^$ | Hemolysis index ([1]; dose 500 μg/kg): 40.5 ± 25.8

Pro Gln Asn Phe (PQNF; printed: Pro Gln Asn Phe) [CMS034]
Hemolysis index ([1]; dose 0.5 μg/kg): 50.8 ± 18.4*^$ | Hemolysis index ([1]; dose 5 μg/kg): 43.0 ± 11.7*^$ | Hemolysis index ([1]; dose 50 μg/kg): 30.2 ± 10.9

RVAPQQHPTL [CMS011]
Survival index (%) ([2]; dose 5 μg/kg i.p. once per day): 60.2% | Survival days ([2]; dose 5 μg/kg i.p. once per day): 36.4 ± 22.2*^& days | Hemolysis index ([1]; dose 0.5 μg/kg): 32.0 ± 14.7 | Hemolysis index ([1]; dose 500 μg/kg): 34.4 ± 19.4

Tyr Ser Leu (YSL; listed as Sus scrofa) [CMS024]
postmortem examination of the mice surviving longer than 90 days ([2]; 0.5 μg/kg/day): did not show sign of tumor establishment | mice that could survive longer than 90 days ([2]; 0.5 μg/kg/day, n=6, two months after the experiment ended): more than 30% | Survival index (%) [2, 3]: 76.9% | Survival days [2, 3]: 46.4 ± 14.8*^^&$ days | Survival index (%) ([2]; dose 5 μg/kg i.p. once per day): 54.8% | Survival days ([2]; dose 5 μg/kg i.p. once per day): 40.6 ± 14.6*^&$ days | Survival index (%) [2, 4]: 38.4% | Survival days [2, 4]: 36.3 ± 12.7*^&$ days | Hemolysis index ([1]; dose 0.5 μg/kg): 43.0 ± 10.7*^$ | Hemolysis index ([1]; dose 5 μg/kg): 42.2 ± 11.8*^$ | Hemolysis index ([1]; dose 50 μg/kg): 27.8 ± 9.1 | Hemolysis index ([1]; dose 500 μg/kg): 30.1 ± 10.0

VAPEEHPTLLTEAPLNPK [CMS010]
Hemolysis index ([1]; dose 0.5 μg/kg): 34.9 ± 10.5*^$ | Hemolysis index ([1]; dose 5 μg/kg): 51.0 ± 14.6*^$ | Hemolysis index ([1]; dose 50 μg/kg): 39.6 ± 7.7*^$ | Hemolysis index ([1]; dose 500 μg/kg): 50.1 ± 16.7*^$

VGMGQKDSY
Survival index (%) (L1210 leukemia; [3]): 26.8% | Survival days (L1210 leukemia; [3]): 21.1 ± 5.8 days | Hemolysis index ([1]; dose 0.5 μg/kg): 42.0 ± 12.0*^$ | Hemolysis index ([1]; dose 5 μg/kg): 35.4 ± 15.1*^$ | Hemolysis index ([1]; dose 50 μg/kg): 28.3 ± 7.6

B1: IFN-γ: recombinant mouse IFN-γ (rmIFN-γ), Beijing Biotech Inc.; positive control (protein, UniProt P01580 23-155, looked up)
Interferon gamma: HGTVIESLESLNNYFNSSGIDVEEKSLFLDIWRNWQKDGDMKILQSQIISFYLRLFEVLKDNQAISNNISVIESHLITTFFSNSKAKKDAFMSIAKFEVNNPQVQRQAFNELIRVVHQLLPESSLRKRKRSRC
Survival index (%) ([2]; control rmIFN-γ 3 × 10^5 IU/kg): 6.1% | Survival days [2, 5]: 27.8 ± 7.5 days | Survival days (L1210 leukemia; controls: IL-2, IFN-γ 3 × 10^5 IU/kg, cyclophosphamide 20 mg/kg): 15.6 ± 2.2 days | Hemolysis index [1, 5]: 60.5 ± 17.4
